Among the data in DBAASP are MIC values, retold here.

Among the test systems are Micrococcus luteus; Streptococcus mutans; Escherichia coli; Bacillus subtilis.
Holding throughout (assay): ≥ marks a high value that may be exact or a test limit, other limits are often not marked, values filed in µg/mL are converted to µM
Assay [1] concerns Staphylococcus aureus NCTC 8325.
Assay [2] has as its system Escherichia coli ATCC 25922.
The subject of assay [3] is Candida albicans ATCC 90028.
The test system of assay [4] is Micrococcus luteus ATCC 9341.
Assay [5] has as its system Streptococcus pyogenes ATCC 19615.
For assay [6], the system named is Enterococcus faecalis ATCC 29212.
Assay [7] deals with Pseudomonas aeruginosa ATCC 27853.
Assay [8] deals with Klebsiella pneumoniae ATCC 13883.
Assay [9] has as its system Staphylococcus aureus ATCC 25923.
For assay [10], the system named is Salmonella enterica subsp. enterica serovar Typhimurium ATCC 14028.

Structures are written as SMILES. ≈ marks a conversion by molar mass, not a printed value.

On to `CC[C@H](C)[C@H](NC(=O)[C@H](CCCCN)NC(=O)[C@H](C)NC(=O)[C@H](CC(C)C)NC(=O)[C@H](CC(=O)O)NC(=O)[C@@H](NC(=O)[C@H](C)N)C(C)C)C(=O)N[C@@H](C)C(=O)N[C@@H](CC(N)=O)C(=O)N[C@@H](CCCCN)C(=O)N[C@H](C(=O)N[C@@H](CC(C)C)C(=O)N[C@@H](CO)C(=O)N[C@@H](CO)C(=O)N[C@@H](CC(C)C)C(=O)N[C@@H](Cc1ccccc1)C(N)=O)C(C)C` [AVDLAKIANKVLSSLF], for which the MIC was not below 150 µM in assay [1] and 37.5 µM (≈ 63.3 µg/mL) in [2].

For the compound `CC[C@H](C)[C@H](NC(=O)[C@H](CCCCN)NC(=O)[C@H](CCSC)NC(=O)[C@H](CC(C)C)NC(=O)CNC(=O)CNC(=O)[C@H](CC(C)C)NC(=O)[C@@H](N)Cc1ccccc1)C(=O)N[C@H](C(=O)N1CCC[C@H]1C(=O)N[C@@H](C)C(=O)N[C@@H](C)C(=O)N[C@@H](Cc1ccccc1)C(=O)N[C@H]1CSSC[C@@H](C(=O)O)NC(=O)[C@H](CCCCN)NC(=O)[C@H](CCCCN)NC(=O)[C@H]([C@@H](C)O)NC(=O)[C@H](C(C)C)NC(=O)[C@H](C)NC1=O)[C@@H](C)CC` [FLGGLMKIIPAAFCAVTKKC], the MIC in [1] was 18 µM (≈ 38 µg/mL); in [3] it was not below 70 µM; in assay [2], 9 µM (≈ 19 µg/mL).

On to `CC[C@H](C)[C@H](NC(=O)[C@H](CCCCN)NC(=O)[C@H](CC(C)C)NC(=O)[C@H](CC(C)C)NC(=O)[C@@H]1CCCN1C(=O)CNC(=O)[C@H](CC(C)C)NC(=O)[C@H](CC(C)C)NC(=O)CN)C(=O)N[C@@H](C)C(=O)N[C@@H](C)C(=O)N[C@@H](CCCCN)C(=O)N[C@H](C(=O)NCC(=O)N[C@@H](CO)C(=O)N[C@@H](CC(N)=O)C(=O)N[C@@H](CC(C)C)C(=O)N[C@@H](CC(C)C)C(=O)O)C(C)C` [GLLGPLLKIAAKVGSNLL], for which the figures for the MIC in [1], in assay [3] and in assay [2] were not below 130 µM, not below 200 µM and 60 µM (≈ 107 µg/mL), respectively.

`CC[C@H](C)[C@H](NC(=O)[C@H](CO)NC(=O)[C@H](CO)NC(=O)[C@@H](NC(=O)[C@H](CC(C)C)NC(=O)CN)C(C)C)C(=O)NCC(=O)N[C@@H](CCCN=C(N)N)C(=O)N[C@@H](C)C(=O)N[C@@H](CC(C)C)C(=O)NCC(=O)NCC(=O)N[C@@H](CC(C)C)C(=O)N[C@@H](CC(C)C)C(=O)N[C@@H](C)C(=O)N[C@@H](CC(=O)O)C(=O)N[C@H](C(=O)N[C@H](C(=O)N[C@@H](CCCCN)C(=O)N[C@@H](CO)C(=O)N[C@@H](CCCCN)C(=O)N[C@@H](CCC(=O)O)C(=O)N[C@@H](CCC(N)=O)C(=O)N1CCC[C@H]1C(=O)N[C@@H](C)C(=O)O)C(C)C)C(C)C` [GLVSSIGRALGGLLADVVKSKEQPA] displayed an MIC against Micrococcus luteus of 20.3 µM (≈ 50 µg/mL).

For `CSCC[C@H](NC(=O)CNC(=O)CNC(=O)[C@H](CCCCN)NC(=O)[C@H](C)NC(=O)[C@H](Cc1ccccc1)NC(=O)[C@H](CCCCN)NC(=O)[C@H](CCCCN)NC(=O)[C@H](CC(C)C)NC(=O)[C@H](C)NC(=O)[C@H](CC(=O)O)NC(=O)[C@H](CC(C)C)NC(=O)[C@H](Cc1ccccc1)NC(=O)[C@@H](NC(=O)CN)C(C)C)C(=O)N[C@@H](CC(N)=O)C(=O)N[C@@H](C)C(=O)N[C@H](C(=O)N[C@@H](CC(C)C)C(=O)N[C@@H](CC(N)=O)C(=O)N1CCC[C@H]1C(=O)N[C@@H](CCCCN)C(=O)O)C(C)C` [GVFLDALKKFAKGGMNAVLNPK], the MIC in [1] is not below 100 µM; in [3], not below 100 µM; in assay [2], 18 µM (≈ 41.7 µg/mL).

`CC[C@H](C)[C@H](N)C(=O)N[C@@H](CC(C)C)C(=O)N1CCC[C@H]1C(=O)N[C@@H](Cc1c[nH]c2ccccc12)C(=O)N[C@@H](CCCCN)C(=O)N[C@@H](Cc1c[nH]c2ccccc12)C(=O)N1CCC[C@H]1C(=O)N[C@@H](Cc1c[nH]c2ccccc12)C(=O)N[C@@H](Cc1c[nH]c2ccccc12)C(=O)N1CCC[C@H]1C(N)=O` [ILPWKWPWWP] had an MIC in [4] of 1.6 µM (≈ 2.25 µg/mL).

In assay [4], `CC[C@H](C)[C@H](N)C(=O)N[C@@H](CC(C)C)C(=O)N1CCC[C@H]1C(=O)N[C@@H](Cc1c[nH]c2ccccc12)C(=O)N[C@@H](CCCCN)C(=O)N[C@@H](Cc1c[nH]c2ccccc12)C(=O)N1CCC[C@H]1C(=O)N[C@@H](Cc1c[nH]c2ccccc12)C(N)=O` [ILPWKWPW] displayed an MIC of 6.3 µM (≈ 7.08 µg/mL).

Turning to `CC[C@H](C)[C@H](NC(=O)[C@H](CCC(N)=O)NC(=O)[C@H](CC(N)=O)NC(=O)[C@H](Cc1ccccc1)NC(=O)[C@@H](NC(=O)[C@H](CCC(N)=O)NC(=O)[C@H](CC(C)C)NC(=O)[C@H](CC(C)C)NC(=O)[C@@H](N)CCCCN)[C@@H](C)O)C(=O)N[C@@H](Cc1ccccc1)C(=O)N[C@@H](CCCN=C(N)N)C(=O)O` [KLLQTFNQIFR], the MIC against Streptococcus mutans was not below 88.8 µM.

In turn, `CC[C@H](C)[C@H](NC(=O)[C@@H](N)CCCN=C(N)N)C(=O)N[C@@H](CC(C)C)C(=O)N[C@@H](CCCCN)C(=O)N[C@@H](CCC(=O)O)C(=O)N[C@@H](CC(C)C)C(=O)N[C@@H](CCCCN)C(=O)N[C@@H](CC(N)=O)C(=O)N[C@@H](CC(C)C)C(=O)N[C@@H](Cc1ccccc1)C(=O)N[C@@H](CCCCN)C(=O)O` [RILKELKNLFK] gave an MIC in the assay on Streptococcus mutans not below 178 µM.

For `NC(=O)[C@H](Cc1ccccc1)NC(=O)[C@H](CCCN=C(N)N)NC(=O)[C@H](CCCN=C(N)N)NC(=O)[C@H](Cc1c[nH]c2ccccc12)NC(=O)[C@H](Cc1c[nH]c2ccccc12)NC(=O)[C@H](CCCN=C(N)N)NC(=O)[C@@H](N)CCCN=C(N)N` [RRWWRRF], the MIC with Streptococcus mutans came out at 14.6 µM (≈ 17 µg/mL).

As to `CC[C@H](C)[C@H](NC(=O)CNC(=O)CNC(=O)CNC(=O)[C@H](Cc1ccccc1)NC(=O)[C@H](Cc1c[nH]c2ccccc12)NC(=O)[C@H](CCCN=C(N)N)NC(=O)[C@H](Cc1c[nH]c2ccccc12)NC(=O)[C@H](CCCN=C(N)N)NC(=O)[C@H](Cc1c[nH]c2ccccc12)NC(=O)[C@@H](N)CCCN=C(N)N)C(=O)N[C@@H](CCCCN)C(=O)N[C@@H](CCC(N)=O)C(=O)N[C@@H](CC(C)C)C(=O)N[C@@H](CC(C)C)C(=O)N[C@@H](Cc1cnc[nH]1)C(=O)N[C@@H](Cc1ccccc1)C(=O)N[C@@H](Cc1ccccc1)C(=O)N[C@@H](CCC(N)=O)C(=O)N[C@@H](Cc1c[nH]c2ccccc12)C(=O)N[C@@H](CCCN=C(N)N)C(=O)N[C@@H](Cc1ccccc1)C(N)=O` [RWRWRWFGGGIKQLLHFFQWRF], in the assay with Streptococcus mutans, the MIC is 3.76 µM (≈ 11.3 µg/mL).

As for `CC(C)[C@H](NC(=O)CNC(=O)[C@H](CCCN=C(N)N)NC(=O)[C@H](Cc1cnc[nH]1)NC(=O)[C@H](Cc1c[nH]c2ccccc12)NC(=O)[C@H](Cc1ccccc1)NC(=O)[C@H](Cc1cnc[nH]1)NC(=O)[C@H](Cc1ccc(O)cc1)NC(=O)[C@@H](N)Cc1ccc(O)cc1)C(=O)N[C@H](C(=O)N[C@@H](CCCCN)C(=O)N[C@@H](CCCN=C(N)N)C(=O)O)[C@@H](C)O` [YYHFWHRGVTKR], the MIC is 40 µM (≈ 66 µg/mL) with Escherichia coli; not below 40 µM in the assay with Bacillus subtilis; not below 70 µM in assay [5]; 30 µM (≈ 49.5 µg/mL) in assay [6]; 40 µM (≈ 66 µg/mL) in assay [7]; not below 40 µM in assay [8]. For the same compound, the MIC turned out to be 30 µM (≈ 49.5 µg/mL) in assay [9] and 40 µM (≈ 66 µg/mL) in assay [10].

Usually MIC stands for the least concentration at which growth counts as inhibited.
